Laboratory results as given in US12357679B2, “Albumin-based non-covalent complexes and methods of use thereof” (Spectral Platforms, Inc., priority 2015, dated 2025).
Converted amounts (≈) assume the structure as drawn.

Tests used:
[1] = test system: Candida albicans (ATCC 90028); conditions: C. albicans; cited from earlier work
[2] = test system: C. glabrata (ATCC 2001); conditions: cited from earlier work
[3] = test system: most gram positive organisms; conditions: cited from earlier work
[4] = cited from earlier work
[5] = ingestion of a 200 mg tablet, microcrystalline suspension in oil-wax base; cited from earlier work
[6] = test system: S. aureus; assay: Rapid MIC prediction with lycopene/HSA assay (UV-Vis absorbance after 30 min incubation); assay type: cell-based; conditions: Staphylococcus aureus, 0.5 h
Description: (§1) The present lycopene/HSA complexes were used to characterize the minimum inhibitory concentration (MIC) of antimicrobial compounds. A lycopene/HSA complex, prepared as described herein, was mixed with a series of samples that all had the same initial amount of S. aureus (200 CFU/mL of PHS), and which was incubated with a varying amount of vancomycin for 30 minutes. […] Upon the addition of the lycopene/HSA assay, aggregation of the lycopene/HSA increased in a manner that scales with S. aureus concentration (and thus on the vancomycin concentration). These changes were characterized via the changes in the UV-Vis spectrum, depicted at the bottom in FIG. 23. The chart on the top in FIG. 23 depicts the absorbance at 600 nm for these samples after another 18 hours of incubation. This absorbance was dominated by the pathogen concentration after 18 hours of growth.
(§2) FIG. 23. Rapid prediction of the MIC of S. aureus at 200 CFU/mL. […] Lycopene (1.125 mM), fucoxanthin (0.375 mM), additional vancomycin (so as to maintain the same concentration of vancomycin) and additional 3440 μl PBS (to bring the total volume to 6 ml) was added and the UV-Vis absorbance was measured. […] The chart on the top depicts the absorbance at 600 nm after 18 hour incubation at 37° C. […]

[7] = test system: S. aureus; assay: MIC by absorbance at 600 nm after 18 hour incubation; assay type: cell-based; conditions: Staphylococcus aureus; absorbance at 600 nm after 18 hour incubation at 37° C.; read-out: actual MIC (break point)
Description: as §1, §2

In the case of C[C@@H]1[C@H](O)[C@@H](C)/C=C/C=C/C=C/C=C/C=C/C=C/C=C/[C@H](O[C@@H]2O[C@H](C)[C@@H](O)[C@H](N)[C@@H]2O)C[C@@H]2O[C@](O)(C[C@@H](O)C[C@@H](O)[C@H](O)CC[C@@H](O)C[C@@H](O)CC(=O)O[C@H]1C)C[C@H](O)[C@H]2C(=O)O [Amphotericin B], the “previously reported minimum inhibitory concentration MIC” value [1] is listed as “about 0.5 μg/mL” and the “previously reported minimum inhibitory concentration MIC” value [2] is listed as “about 0.5 μg/mL”.
In the case of CC(C)/N=c1\cc2n(-c3ccc(Cl)cc3)c3ccccc3nc-2cc1Nc1ccc(Cl)cc1 [Clofazimine], the MIC [3] is listed as “about 0.4 μg/mL”, the water solubility [4] is listed as “not water soluble” and the peak plasma concentration [5] is listed as 0.41 µg/mL.
For CN[C@H](CC(C)C)C(=O)N[C@H]1C(=O)N[C@@H](CC(N)=O)C(=O)N[C@H]2C(=O)N[C@H]3C(=O)N[C@H](C(=O)N[C@H](C(=O)O)c4cc(O)cc(O)c4-c4cc3ccc4O)[C@H](O)c3ccc(c(Cl)c3)Oc3cc2cc(c3O[C@@H]2O[C@H](CO)[C@@H](O)[C@H](O)[C@H]2O[C@H]2C[C@](C)(N)[C@H](O)[C@H](C)O2)Oc2ccc(cc2Cl)[C@H]1O [vancomycin], the MIC ([6]; read-out: predicted MIC) was ~0.6 µg/mL (≈ 0.414 µM), the MIC ([6]; read-out: predicted MIC (break point)) was 200 µg/mL (≈ 138 µM) and the MIC [7] was 0.2 µg/mL (≈ 0.138 µM).
